The OligoGym collection
HELM strings list units from the 5' end as sugar, base in round brackets, then linkage (d deoxyribose, r ribose, m 2'-O-methyl, p phosphodiester). Strings are as the collection lists them, not checked against the first reports. ss, as = sense and antisense strand

Settings: siRNA
Further: test system not given here.

Substance	target mRNA knockdown
RNA1{m(G)p.r(G)p.m(U)p.r(A)p.m(G)p.r(G)p.m(G)p.r(U)p.m(U)p.r(G)p.m(A)p.r(A)p.m(G)p.r(A)p.m(G)p.r(A)p.m(C)p.r(U)p.r(U)p.r(T)p.r(T)}|RNA2{r(A)p.r(A)p.r(G)p.r(U)p.r(C)p.r(U)p.r(C)p.r(U)p.r(U)p.r(C)p.r(A)p.r(A)p.m(C)p.r(C)p.r(C)p.r(U)p.m(A)p.r(C)p.r(C)p.r(T)p.r(T)}$$$RNA1{StrandType:ss}|RNA2{StrandType:as}$	58%
RNA1{m(G)p.r(U)p.m(A)p.r(C)p.m(U)p.r(C)p.m(U)p.r(G)p.m(A)p.r(U)p.m(G)p.r(A)p.m(G)p.r(G)p.m(A)p.r(A)p.m(G)p.r(A)p.m(G)p.r(T)p.r(T)}|RNA2{r(C)p.r(U)p.r(C)p.r(U)p.r(U)p.r(C)p.r(C)p.r(U)p.r(C)p.r(A)p.r(U)p.r(C)p.r(A)p.r(G)p.r(A)p.r(G)p.r(U)p.r(A)p.r(C)p.r(T)p.r(T)}$$$RNA1{StrandType:ss}|RNA2{StrandType:as}$	18%
RNA1{m(G)p.r(U)p.m(A)p.r(U)p.m(C)p.r(C)p.m(G)p.r(A)p.m(A)p.r(G)p.m(A)p.r(C)p.m(G)p.r(A)p.m(A)p.r(G)p.m(C)p.r(U)p.m(A)p.r(T)p.r(T)}|RNA2{r(U)p.m(A)p.r(G)p.r(C)p.r(U)p.r(U)p.r(C)p.r(G)p.r(U)p.r(C)p.r(U)p.r(U)p.r(C)p.r(G)p.r(G)p.m(A)p.r(U)p.m(A)p.r(C)p.r(T)p.r(T)}$$$RNA1{StrandType:ss}|RNA2{StrandType:as}$	30%
RNA1{m(G)p.r(U)p.m(C)p.r(U)p.m(A)p.r(U)p.m(G)p.r(C)p.m(C)p.r(A)p.m(A)p.r(G)p.m(A)p.r(A)p.m(G)p.r(G)p.m(G)p.r(A)p.m(G)p.r(T)p.r(T)}|RNA2{r(C)p.r(U)p.r(C)p.r(C)p.r(C)p.r(U)p.r(U)p.r(C)p.r(U)p.r(U)p.r(G)p.r(G)p.r(C)p.r(A)p.r(U)p.r(A)p.r(G)p.r(A)p.r(C)p.r(T)p.r(T)}$$$RNA1{StrandType:ss}|RNA2{StrandType:as}$	24%
RNA1{m(U)p.r(A)p.m(A)p.r(A)p.m(C)p.r(U)p.m(U)p.r(U)p.m(G)p.r(G)p.m(G)p.r(G)p.m(A)p.r(A)p.m(G)p.r(G)p.m(G)p.r(A)p.m(G)p.r(T)p.r(T)}|RNA2{r(C)p.r(U)p.r(C)p.r(C)p.r(C)p.r(U)p.r(U)p.r(C)p.r(C)p.r(C)p.r(C)p.r(A)p.r(A)p.r(A)p.r(G)p.r(U)p.r(U)p.r(U)p.r(A)p.r(T)p.r(T)}$$$RNA1{StrandType:ss}|RNA2{StrandType:as}$	34%
RNA1{m(U)p.r(A)p.m(A)p.r(A)p.m(G)p.r(C)p.m(U)p.r(G)p.m(G)p.r(A)p.m(A)p.r(A)p.m(G)p.r(G)p.m(G)p.r(A)p.m(C)p.r(G)p.m(G)p.r(T)p.r(T)}|RNA2{r(C)p.r(C)p.r(G)p.r(U)p.r(C)p.r(C)p.r(C)p.r(U)p.r(U)p.r(U)p.r(C)p.r(C)p.m(A)p.r(G)p.r(C)p.r(U)p.r(U)p.r(U)p.m(A)p.r(T)p.r(T)}$$$RNA1{StrandType:ss}|RNA2{StrandType:as}$	29%
RNA1{m(U)p.r(A)p.m(G)p.r(C)p.m(C)p.r(A)p.m(G)p.r(A)p.m(G)p.r(C)p.m(C)p.r(A)p.m(A)p.r(A)p.r(G)p.m(A)p.r(A)p.r(G)p.r(C)p.r(T)p.r(T)}|RNA2{r(G)p.r(C)p.m(U)p.m(U)p.r(C)p.m(U)p.m(U)p.m(U)p.r(G)p.r(G)p.r(C)p.m(U)p.r(C)p.m(U)p.r(G)p.r(G)p.r(C)p.m(U)p.r(A)p.r(T)p.r(T)}$$$RNA1{StrandType:ss}|RNA2{StrandType:as}$	75%
RNA1{m(U)p.r(A)p.r(A)p.r(A)p.r(C)p.r(U)p.r(U)p.m(U)p.r(G)p.r(G)p.r(G)p.r(G)p.r(A)p.r(A)p.r(G)p.r(G)p.r(G)p.r(A)p.r(G)p.r(T)p.r(T)}|RNA2{r(C)p.r(U)p.r(C)p.r(C)p.r(C)p.r(U)p.r(U)p.r(C)p.r(C)p.r(C)p.m(C)p.r(A)p.r(A)p.r(A)p.r(G)p.r(U)p.r(U)p.m(U)p.r(A)p.r(T)p.r(T)}$$$RNA1{StrandType:ss}|RNA2{StrandType:as}$	67%
RNA1{m(U)p.r(A)p.r(A)p.r(A)p.r(C)p.r(U)p.r(U)p.r(U)p.r(G)p.r(G)p.r(G)p.r(G)p.r(A)p.r(A)p.r(G)p.r(G)p.r(G)p.r(A)p.r(G)p.r(T)p.r(T)}|RNA2{r(C)p.r(U)p.r(C)p.m(C)p.r(C)p.r(U)p.r(U)p.r(C)p.r(C)p.r(C)p.r(C)p.r(A)p.r(A)p.r(A)p.r(G)p.r(U)p.r(U)p.r(U)p.r(A)p.r(T)p.r(T)}$$$RNA1{StrandType:ss}|RNA2{StrandType:as}$	72%
RNA1{m(U)p.r(A)p.r(A)p.r(A)p.r(G)p.r(C)p.m(U)p.r(G)p.r(G)p.r(A)p.r(A)p.r(A)p.r(G)p.r(G)p.r(G)p.r(A)p.r(C)p.r(G)p.r(G)p.r(T)p.r(T)}|RNA2{r(C)p.r(C)p.r(G)p.r(U)p.r(C)p.r(C)p.r(C)p.r(U)p.r(U)p.r(U)p.r(C)p.m(C)p.r(A)p.r(G)p.r(C)p.r(U)p.r(U)p.m(U)p.r(A)p.r(T)p.r(T)}$$$RNA1{StrandType:ss}|RNA2{StrandType:as}$	65%
RNA1{m(U)p.r(A)p.r(A)p.r(A)p.r(G)p.r(C)p.r(U)p.r(G)p.r(G)p.r(A)p.r(A)p.r(A)p.r(G)p.r(G)p.r(G)p.r(A)p.r(C)p.r(G)p.r(G)p.r(T)p.r(T)}|RNA2{r(C)p.r(C)p.r(G)p.r(U)p.r(C)p.r(C)p.r(C)p.r(U)p.r(U)p.r(U)p.r(C)p.r(C)p.r(A)p.r(G)p.r(C)p.r(U)p.r(U)p.m(U)p.r(A)p.r(T)p.r(T)}$$$RNA1{StrandType:ss}|RNA2{StrandType:as}$	67%
RNA1{m(U)p.r(A)p.r(C)p.r(C)p.r(G)p.r(A)p.r(G)p.r(A)p.r(A)p.m(U)p.r(G)p.r(A)p.r(G)p.r(C)p.r(C)p.m(U)p.r(G)p.r(A)p.r(U)p.r(T)p.r(T)}|RNA2{r(A)p.r(U)p.m(C)p.r(A)p.r(G)p.r(G)p.r(C)p.r(U)p.m(C)p.r(A)p.r(U)p.r(U)p.r(C)p.r(U)p.r(C)p.r(G)p.r(G)p.m(U)p.r(A)p.r(T)p.r(T)}$$$RNA1{StrandType:ss}|RNA2{StrandType:as}$	54%
RNA1{m(U)p.r(A)p.r(C)p.r(C)p.r(G)p.r(A)p.r(G)p.r(A)p.r(A)p.r(U)p.r(G)p.r(A)p.r(G)p.r(C)p.r(C)p.r(U)p.r(G)p.r(A)p.r(U)p.r(T)p.r(T)}|RNA2{r(A)p.r(U)p.r(C)p.r(A)p.r(G)p.r(G)p.r(C)p.r(U)p.r(C)p.r(A)p.r(U)p.r(U)p.r(C)p.r(U)p.r(C)p.r(G)p.r(G)p.m(U)p.r(A)p.r(T)p.r(T)}$$$RNA1{StrandType:ss}|RNA2{StrandType:as}$	55%
RNA1{m(U)p.r(A)p.r(G)p.r(C)p.m(C)p.r(A)p.r(G)p.r(A)p.r(G)p.r(C)p.m(C)p.r(A)p.r(A)p.r(A)p.r(G)p.r(A)p.r(A)p.r(G)p.r(C)p.r(T)p.r(T)}|RNA2{r(G)p.r(C)p.r(U)p.r(U)p.r(C)p.r(U)p.r(U)p.r(U)p.r(G)p.m(G)p.r(C)p.r(U)p.r(C)p.r(U)p.r(G)p.m(G)p.m(C)p.m(U)p.r(A)p.r(T)p.r(T)}$$$RNA1{StrandType:ss}|RNA2{StrandType:as}$	85%
RNA1{m(U)p.r(A)p.r(G)p.r(C)p.r(C)p.r(A)p.r(G)p.r(A)p.r(G)p.r(C)p.r(C)p.r(A)p.r(A)p.r(A)p.r(G)p.r(A)p.r(A)p.r(G)p.r(C)p.r(T)p.r(T)}|RNA2{r(G)p.r(C)p.r(U)p.r(U)p.r(C)p.r(U)p.r(U)p.r(U)p.r(G)p.r(G)p.r(C)p.r(U)p.r(C)p.r(U)p.r(G)p.r(G)p.r(C)p.m(U)p.r(A)p.r(T)p.r(T)}$$$RNA1{StrandType:ss}|RNA2{StrandType:as}$	82%
RNA1{m(U)p.r(C)p.m(C)p.r(C)p.m(U)p.r(U)p.m(C)p.r(C)p.m(A)p.r(C)p.m(C)p.r(G)p.m(C)p.r(C)p.m(A)p.r(U)p.m(A)p.r(U)p.m(U)p.r(T)p.r(T)}|RNA2{r(A)p.r(A)p.r(U)p.r(A)p.r(U)p.r(G)p.r(G)p.r(C)p.r(G)p.r(G)p.r(U)p.r(G)p.r(G)p.r(A)p.r(A)p.r(G)p.r(G)p.r(G)p.r(A)p.r(T)p.r(T)}$$$RNA1{StrandType:ss}|RNA2{StrandType:as}$	11%
RNA1{m(U)p.r(C)p.m(C)p.r(U)p.m(A)p.r(G)p.m(C)p.r(U)p.m(G)p.r(U)p.m(C)p.r(U)p.m(U)p.r(G)p.m(U)p.r(C)p.m(C)p.r(C)p.m(U)p.r(T)p.r(T)}|RNA2{r(A)p.r(G)p.r(G)p.r(G)p.r(A)p.r(C)p.r(A)p.r(A)p.r(G)p.r(A)p.r(C)p.r(A)p.r(G)p.r(C)p.r(U)p.r(A)p.r(G)p.r(G)p.r(A)p.r(T)p.r(T)}$$$RNA1{StrandType:ss}|RNA2{StrandType:as}$	27%
RNA1{m(U)p.r(C)p.m(C)p.r(U)p.m(C)p.r(G)p.m(U)p.r(C)p.m(G)p.r(U)p.m(C)p.r(U)p.m(G)p.r(U)p.m(U)p.r(C)p.m(U)p.r(A)p.m(A)p.r(T)p.r(T)}|RNA2{r(U)p.r(U)p.m(A)p.r(G)p.m(A)p.r(A)p.r(C)p.r(A)p.r(G)p.r(A)p.r(C)p.r(G)p.r(A)p.r(C)p.r(G)p.r(A)p.m(G)p.r(G)p.m(A)p.r(T)p.r(T)}$$$RNA1{StrandType:ss}|RNA2{StrandType:as}$	63%
RNA1{m(U)p.r(C)p.m(U)p.r(A)p.m(C)p.r(A)p.m(C)p.r(C)p.m(G)p.r(C)p.m(G)p.r(C)p.m(C)p.r(C)p.m(C)p.r(C)p.m(C)p.r(U)p.m(C)p.r(T)p.r(T)}|RNA2{r(G)p.r(A)p.r(G)p.r(G)p.r(G)p.r(G)p.r(G)p.r(G)p.r(C)p.r(G)p.r(C)p.r(G)p.r(G)p.r(U)p.r(G)p.r(U)p.r(A)p.r(G)p.r(A)p.r(T)p.r(T)}$$$RNA1{StrandType:ss}|RNA2{StrandType:as}$	39%
RNA1{m(U)p.r(C)p.m(U)p.r(C)p.m(G)p.r(U)p.m(A)p.r(A)p.m(G)p.r(G)p.m(A)p.r(C)p.m(G)p.r(A)p.m(A)p.r(A)p.m(C)p.r(G)p.r(A)p.r(T)p.r(T)}|RNA2{r(U)p.r(C)p.r(G)p.r(U)p.r(U)p.r(U)p.r(C)p.r(G)p.r(U)p.r(C)p.r(C)p.r(U)p.r(U)p.r(A)p.r(C)p.r(G)p.r(A)p.r(G)p.r(A)p.r(T)p.r(T)}$$$RNA1{StrandType:ss}|RNA2{StrandType:as}$	34%
RNA1{m(U)p.r(G)p.m(A)p.r(A)p.m(C)p.r(G)p.m(U)p.r(C)p.m(A)p.r(C)p.m(C)p.r(G)p.m(A)p.r(G)p.m(G)p.r(A)p.m(G)p.r(A)p.m(A)p.r(T)p.r(T)}|RNA2{r(U)p.r(U)p.r(C)p.r(U)p.r(C)p.r(C)p.r(U)p.r(C)p.r(G)p.r(G)p.r(U)p.r(G)p.m(A)p.r(C)p.r(G)p.r(U)p.r(U)p.r(C)p.m(A)p.r(T)p.r(T)}$$$RNA1{StrandType:ss}|RNA2{StrandType:as}$	65%
